Results taken from patent US20250066338A1, “CERTAIN 3-AZABICYCLO[3.1.0]HEXANES AS GLP-1 RECEPTOR MODULATORS” (AstraZeneca AB, priority 2021, published 2025).

How the values were obtained:
human GLP-1R receptor = human GLP-1R receptor (Homo sapiens (Human), UniProt P43220, L260F); assay: CHOK1 GLP-1R cAMP Assay; type: cell-based; settings: CHO-K1 cell line stably expressing human GLP-1R; HTRF cAMP; agonist activity
Description: A cell line stably expressing the human GLP-1R receptor (NM 002062.5, including the naturally-occurring variant Leu260Phe) in a CHO-K1 (ATCC® CCL-61™) was used for assay.
GLP-1 receptor mediated agonist activity was determined in a cell based assay measuring cyclic adenosine monophosphate (cAMP) levels in cells using Homogeneous Time-Resolved Fluorescence (HTRF) cAMP detection kit (CisBio catalog #62AM4PEC, cAMP Gs Dynamic range kit). The cAMP detection method is based on a competitive immunoassay, in which cAMP produced by the cells and cAMP labeled with the dye d2 compete for binding to a Europium-Cryptate-labeled anti-cAMP antibody. The specific HTRF signal is inversely proportional to the concentration of cAMP.
Compounds were added to individual well in 384 well-assay plates (Greiner #784076) using an Echo (LabCyte) dispenser from 10 mM stocks. Varying concentration of compounds were added to wells, and DMSO was used to normalize each well to a volume of 100 nL. A dose response curve of GLP1(7-36)NH2 (Bachem H-6795) was included in each run. 5 μL of cAMP concentration response standards are applied in specified wells in the assay plates. Cryo-preserved cells are thawed and resuspended in assay buffer pre-heated to 37° C. (20 mM HEPES pH 7.4, lx Hank's Balanced Salt Solution (HBSS, Life Technologies #14065) supplemented with 0.1% (w/v) bovine serum albumin (Sigma, A-7030). Cells were centrifuged at 250*g for 5 min at rt, and resuspended in room tempered assay buffer to a final density of 0.16*10^6 cell/mL, to deliver 800 cells/well. 5 μL of assay buffer with 1 mM 3-isobutyl-1-methylxanthin (IBMX; Sigma cat I-7018) was dispensed per well in assay plates using a multidrop combi (Thermo Scientific) subsequently 5 μL of cell suspension was distributed to relevant wells in the assay using a multidrop dispenser. Assay plates were incubated 20 min at rt.
Detection reagents, Europium-Cryptate-labeled anti-cAMP antibody and cAMP labeled with the dye d2, are diluted in lysis buffer, provided by the manufacturer. 5 μL of each detection reagent is supplemented to each assay well using a multidrop dispenser. Assay plates are incubated in the dark for at least one h. The HTRF signal is measured using the HTRF module (excitation: 337 nm, emission A: 665 nm and emission B: 620 nm) in Pherastar FSX (BMG Labtech).
Raw data were converted to pM cAMP using the cAMP standard curve included in each run. Converted data were further analyzed in Genedata Screener (Genedata) and EC50 determinations were made from agonist dose-response curves analyzed with a curve fitting program using a 4-parameter logistic dose response equation (Equation y=A+((B−A)/1+((C/x)^D))) where A is no stimulation, B is full stimulation, C is the EC50 and D is the Hill slope). The percent effect was determined relative to a saturating concentration of a full GLP-1R agonist (GLP1(7-36)NH2 has 100% effect in this assay setup).

[1] = biological target: GLP-1R in EndoC-βH1 cells (Homo sapiens (Human), UniProt P43220); assay: EndoC cAMP Accumulation Assay; type: cell-based; settings: EndoC-βH1 human pancreatic beta cell line; HTRF cAMP accumulation
Source text: EndoC cAMP Accumulation Assay
A HTRF cAMP assay (cAMP Gs dynamic kit; CisoBio Cat #62AM4PEJ) was used to identify agonists of GLP-1R in a pancreatic insulinoma cell line (EndoC-βH1). […] EndoC-βH1 cells have detectable GLP-1R messenger ribonucleic acid (mRNA) as detected by quantitative polymerase chain reaction (qPCR). […] The EndoC-βH1 cell line is a valid model of human beta cells and applicable for screenings to identify novel drug target candidates (Mol. Metab., 2018, 8, 144-157). CisBio HTRF cAMP kits are based on a competitive immunoassay using cryptate-labelled anti-cAMP antibody and d2-labeled cAMP. The detection kit is intended for the direct quantitative determination of cAMP. The specific signal (i.e. energy transfer) is inversely proportional to the concentration of cAMP in the standard or sample. Test compounds (10 mM in DMSO) were diluted into assay buffer (HBSS (Sigma #H8264) supplemented with 25 mM HEPES (Gibco #15630, pH 7.4), 0.1% BSA (Sigma #A3059) and 0.5 mM IBMX (Sigma #17018) included fresh on the day of the assay) into 96 well U-bottom plates (Greiner #650201). Diluted compounds were transferred to ECHO source polypropylene plates (Labcyte #P-05525) and dose response curves were dispensed acoustically using ECHO 550 into black shallow-well u-bottom 384-well HTRF Assay Plates (Corning 4514).
Cryovials of EndoC-H1 (supplied at 1×10e^7 cells/vial) were used directly for screening. The cryovials and were removed from N2 (1) and thawed rapidly in a 37° C. water bath. The cells were resuspended in assay buffer and centrifuged at 300 g for 5 min. Cells were resuspended in assay buffer at the appropriate concentration, typically at 12e5 cells per mL (3000 cells per well, dependent on cell batch) and 2.5 μL diluted cells were added to all wells of destination plate by Multidrop combi reagent dispenser (Thermofisher). The plates were incubated at rt for 30 min. The assay was stopped by adding 2.5 μL anti-cAMP cryptate solution to all wells and 2.5 μL cAMP-d2 solution (both diluted 1:20 in lysis buffer) to columns 1-22 by Combi drop. A volume of 2.5 μL cAMP-d2 solution was added to wells E23 to P24 and 2.5 μL lysis buffer added to wells A23 to D24 by multichannel pipette. The plates were incubated at rt for 1 h and read on an Envision plate reader using excitation wavelength of 320 nm and emission of […] and 660 nm.
Raw data from Envision is converted to % DeltaF according to the manufacturer's instructions. Dose response curves are analysed via 4-Parameter Logistical Analysis and assay plate Z′ values obtained. Samples are graphed as percentage (%) activation plots compared to GIP (1-42, Bachem H-5645) with assay window defined by negative control as basal cell cAMP levels and positive control are defined by maximum GIP (82.5 nM) signal. GLP1 (7-36 amide, Bachem H-6795) dose response curve was included on all plates.

[2] = biological target: human phosphodiesterase-3A (Homo sapiens (Human), UniProt Q14432); assay: PDE3 Assay; type: biochemical; settings: human recombinant enzyme expressed in Sf9 cells; formation of 5'AMP from cAMP
Description: Evaluation of the effects of compounds on the activity of the human phosphodiesterase-3A is quantified by measuring the formation of 5′AMP from cAMP using a human recombinant enzyme expressed in a clonal isolate of Spodoptera frugiperda cells (Sf9) cells.
The test compound, reference compound or water (control) are added to a buffer containing 40 mM tris(hydroxymethyl)aminomethane (Tris)/HCl (pH 7.4) and 8 mM MgCl2, 450 nMcAMP and 0.25 μCi [^3H]cAMP.
Thereafter, the reaction is initiated by addition of the enzyme (about 1 U) and the mixture is incubated for 20 min at 22° C.
For basal control measurements, the enzyme is omitted from the reaction mixture. Following incubation SPA beads are added. After 30 min at 22° C. under shaking, the amount of [^3H]^+ 5′AMP is quantified with a scintillation counter (Topcount, Packard).
The results are expressed as a percent inhibition of the control enzyme activity. The standard inhibitory reference compound is milrinone (CAS number 78415-72-2), which is tested in each experiment at several concentrations to obtain an inhibition curve from which its IC50 value is calculated.

Sequence of human GLP-1R receptor (P43220 24-463 L260F): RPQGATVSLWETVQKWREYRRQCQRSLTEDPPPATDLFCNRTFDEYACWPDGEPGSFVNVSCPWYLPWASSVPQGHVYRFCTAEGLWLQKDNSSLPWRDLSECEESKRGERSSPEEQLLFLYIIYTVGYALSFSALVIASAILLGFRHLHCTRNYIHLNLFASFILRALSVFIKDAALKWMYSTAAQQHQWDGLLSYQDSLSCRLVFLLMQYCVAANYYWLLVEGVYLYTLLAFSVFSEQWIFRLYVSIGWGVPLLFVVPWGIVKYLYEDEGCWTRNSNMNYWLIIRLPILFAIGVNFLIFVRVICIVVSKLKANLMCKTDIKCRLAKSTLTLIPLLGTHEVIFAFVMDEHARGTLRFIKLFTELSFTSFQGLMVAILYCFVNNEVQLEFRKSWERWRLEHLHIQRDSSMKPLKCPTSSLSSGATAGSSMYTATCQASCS
Sequence of GLP-1R in EndoC-βH1 cells (P43220 24-463): as the sequence (P43220 24-463 L260F) above, with F237L counted along it
Sequence of human phosphodiesterase-3A (Q14432 whole entry): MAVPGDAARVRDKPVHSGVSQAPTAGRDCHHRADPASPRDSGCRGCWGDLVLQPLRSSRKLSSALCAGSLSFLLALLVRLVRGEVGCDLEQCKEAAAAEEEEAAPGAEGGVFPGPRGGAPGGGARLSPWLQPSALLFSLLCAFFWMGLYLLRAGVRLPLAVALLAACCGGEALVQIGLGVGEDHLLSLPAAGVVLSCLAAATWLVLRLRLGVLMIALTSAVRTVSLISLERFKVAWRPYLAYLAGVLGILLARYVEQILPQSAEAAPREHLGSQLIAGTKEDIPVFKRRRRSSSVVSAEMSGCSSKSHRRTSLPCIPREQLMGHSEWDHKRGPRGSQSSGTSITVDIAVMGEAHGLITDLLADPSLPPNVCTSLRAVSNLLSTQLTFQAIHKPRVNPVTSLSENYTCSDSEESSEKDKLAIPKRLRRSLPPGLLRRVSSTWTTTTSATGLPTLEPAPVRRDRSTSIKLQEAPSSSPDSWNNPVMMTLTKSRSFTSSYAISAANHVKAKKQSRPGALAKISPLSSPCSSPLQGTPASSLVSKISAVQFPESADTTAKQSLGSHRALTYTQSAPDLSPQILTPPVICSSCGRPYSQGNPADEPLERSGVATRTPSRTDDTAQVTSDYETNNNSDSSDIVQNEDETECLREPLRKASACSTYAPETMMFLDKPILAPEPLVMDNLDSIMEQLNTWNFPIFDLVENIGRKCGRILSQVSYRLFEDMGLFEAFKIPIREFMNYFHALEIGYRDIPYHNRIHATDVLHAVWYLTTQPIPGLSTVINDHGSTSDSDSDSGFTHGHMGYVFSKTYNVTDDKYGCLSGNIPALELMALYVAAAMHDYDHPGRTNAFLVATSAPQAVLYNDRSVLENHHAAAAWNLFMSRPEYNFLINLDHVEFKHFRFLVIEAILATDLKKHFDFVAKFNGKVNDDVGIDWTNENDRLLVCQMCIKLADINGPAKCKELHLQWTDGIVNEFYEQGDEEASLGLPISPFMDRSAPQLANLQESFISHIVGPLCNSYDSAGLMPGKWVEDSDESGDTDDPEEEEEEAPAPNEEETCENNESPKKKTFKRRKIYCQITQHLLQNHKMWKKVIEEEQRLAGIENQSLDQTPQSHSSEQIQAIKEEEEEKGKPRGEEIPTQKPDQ

EC50 (human GLP-1R receptor): 19 nM
EC50 [1]: 9.6 nM
IC50 [2]: > 100000 nM
Structure (SMILES): COc1cc(C(=O)O)cc2c1nc(CN1C[C@@H]3[C@H](C1)[C@H]3c1nc(OCc3ccc(Cl)cc3F)ccc1C)n2C[C@@H]1CCO1 [Example 19, 2-(((1R,5S,6S)-6-(6-((4-Chloro-2-fluorobenzyl)oxy)-3-methylpyridin-2-yl)-3-azabicyclo[3.1.0]hexan-3-yl)methyl)-4-methoxy-1-(((S)-oxetan-2-yl)methyl)-1H-benzo[d]imidazole-6-carboxylic acid]
